According to patent US20240335569A1, “FIBROBLAST ACTIVATION PROTEIN INHIBITORS AND USE THEREOF” (3 B PHARMACEUTICALS GMBH, priority 2021, published 2024):
Where two headings read alike, the source gives them in different places.

Legend:
Human recombinant FAP [1] = target: T1, Human recombinant FAP (Homo sapiens (Human), UniProt Q12884); experiment: Surface plasmon resonance assay (Biacore T200, SCK); type: binding; conditions: for HL [min] (Biacore): SPR dissociation half-life
Outline: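 Anti-FAP antibody amine-coupled to CM5 chip (7000 RU), human recombinant FAP captured at 20 μg/mL; compounds run in single-cycle kinetics at 25° C in HBST with 0.1% DMSO, top concentration 500 nM. Reference-cell and buffer-run drift subtraction; kon, koff, KD, t1/2 from 1:1 Langmuir fit, reported as pKD.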
Target sequence in this assay (Q12884 whole entry): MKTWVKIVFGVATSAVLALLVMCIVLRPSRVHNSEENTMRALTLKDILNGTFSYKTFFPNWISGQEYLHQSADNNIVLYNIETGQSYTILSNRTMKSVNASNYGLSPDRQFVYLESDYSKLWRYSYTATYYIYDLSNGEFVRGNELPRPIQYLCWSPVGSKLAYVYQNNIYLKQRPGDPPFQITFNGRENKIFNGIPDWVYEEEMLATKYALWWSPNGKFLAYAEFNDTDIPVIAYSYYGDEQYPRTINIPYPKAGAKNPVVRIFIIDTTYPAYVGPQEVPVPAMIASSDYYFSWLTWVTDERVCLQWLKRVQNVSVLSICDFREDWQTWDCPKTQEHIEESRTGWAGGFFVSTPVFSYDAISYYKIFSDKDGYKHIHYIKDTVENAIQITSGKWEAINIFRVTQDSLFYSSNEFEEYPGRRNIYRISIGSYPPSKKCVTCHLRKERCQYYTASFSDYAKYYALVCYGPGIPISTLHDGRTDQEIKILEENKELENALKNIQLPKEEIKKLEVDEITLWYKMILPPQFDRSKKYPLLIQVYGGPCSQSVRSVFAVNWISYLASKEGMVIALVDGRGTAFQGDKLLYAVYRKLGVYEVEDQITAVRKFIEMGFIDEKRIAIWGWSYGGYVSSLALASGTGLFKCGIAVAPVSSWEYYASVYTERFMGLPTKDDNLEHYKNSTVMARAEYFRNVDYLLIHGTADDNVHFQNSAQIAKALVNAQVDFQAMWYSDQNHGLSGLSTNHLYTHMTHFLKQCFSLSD

Recombinant human DPP4 = Recombinant human DPP4 (Homo sapiens (Human), UniProt P27487); experiment: DPP4 protease activity assay; type: biochemical
Procedure: (§1) The PREP activity assay was performed using the FACS buffer (PBS including 1% FBS, Sigma-Aldrich, Cat #D8537). […] The DPP4 activity assay was performed in DPP assay buffer (25 mM Tris, pH 8.0). […] Four parameter logistic (4PL) curve fitting and pIC50 calculations were performed using ActivityBase software.

recombinant human PREP = recombinant human PREP (Homo sapiens (Human), UniProt P48147); experiment: PREP protease activity assay; type: biochemical
Procedure: as §1

Human recombinant FAP [2] = target: T1, Human recombinant FAP; experiment: FAP protease activity assay (human), FRET-based; type: biochemical; conditions: recombinant human FAP, FRET protease activity
Procedure: (§2) In order to determine the inhibitory activity a FRET-based FAP protease activity assay was established.
Four parameter logistic (4PL) curve fitting and pIC50 calculations were performed using ActivityBase software (IDBS).
Target sequence in this assay (Q12884 26-760): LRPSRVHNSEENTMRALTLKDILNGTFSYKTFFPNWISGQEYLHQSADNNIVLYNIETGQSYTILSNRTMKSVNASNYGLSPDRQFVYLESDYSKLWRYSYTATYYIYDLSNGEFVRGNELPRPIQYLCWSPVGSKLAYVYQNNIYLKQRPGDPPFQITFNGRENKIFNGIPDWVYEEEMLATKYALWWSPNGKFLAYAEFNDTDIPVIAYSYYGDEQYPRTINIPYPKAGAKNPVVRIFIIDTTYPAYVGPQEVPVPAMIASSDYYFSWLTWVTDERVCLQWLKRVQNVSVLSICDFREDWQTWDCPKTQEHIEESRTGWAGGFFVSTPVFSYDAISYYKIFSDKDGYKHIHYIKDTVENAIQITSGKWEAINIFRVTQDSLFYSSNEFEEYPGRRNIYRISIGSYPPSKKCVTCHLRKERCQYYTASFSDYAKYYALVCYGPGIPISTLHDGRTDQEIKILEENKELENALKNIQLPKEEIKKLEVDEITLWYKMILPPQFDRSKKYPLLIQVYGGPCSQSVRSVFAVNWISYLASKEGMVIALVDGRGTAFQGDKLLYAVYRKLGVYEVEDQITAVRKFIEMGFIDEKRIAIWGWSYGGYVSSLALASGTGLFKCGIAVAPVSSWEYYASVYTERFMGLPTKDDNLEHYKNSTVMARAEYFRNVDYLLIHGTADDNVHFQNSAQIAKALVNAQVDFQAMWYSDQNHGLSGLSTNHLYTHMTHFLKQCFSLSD

[3] = Plasma stability assay (mouse plasma); type: in vitro ADME; conditions: 37° C., 4 h
Procedure: In order to determine the stability of selected compounds of the invention in human and mouse plasma, a plasma stability assay was carried out. Such plasma stability assay measures degradation of compounds of the present invention in blood plasma. This is an important characteristic of a compound as compounds, with the exception of pro-drugs, which rapidly degrade in plasma, generally show poor in vivo efficacy. […] The stability is sufficient for the diagnostic, therapeutic and theragnostic use of these compounds according to the present invention.
The plasma stability samples were prepared by spiking 50 μl plasma aliquots (all sodium citrate 3.8%) with 1 μL of a 0.5 mM compound stock solution in DMSO. After vortexing, the samples were incubated in a Thermomixer at 37° C. for 4 or 6 hours. After incubation, the samples were stored on ice until further treatment. All samples were prepared in duplicates.
A suitable internal standard was added to each sample (1 μL of a 0.5 mM stock solution in DMSO). Protein precipitation was performed using two different methods depending on the compound conditions as indicated in Table 7. • A) 250 μL of acetonitrile containing 1% trifluoroacetic acid was added. […] After incubation at room temperature for 30 min, the precipitate was separated by centrifugation. To 100 μL of the supernatant 10 μL of 1% formic acid was added followed by further incubation at 60° C. for 10 min to complete the formation of the zinc chelate, if the compound contains a free DOTA moiety.
The determination of the analyte in the clean sample solutions was performed on an Agilent 1290 UHPLC system coupled to an Agilent 6530 Q-TOF mass spectrometer. The chromatographic separation was carried out on a Phenomenex BioZen XB-C18 HPLC column (50×2 mm, 1.7 μm particle size) with gradient elution using a mixture of 0.1% formic acid in water as eluent A and acetonitrile as eluent B (2% B to 41% in 7 min, 800 μL/min, 40° C.). Mass spectrometric detection was performed in positive ion ESI mode by scanning the mass range from m/z 50 to 3000 with a sampling rate of 2/sec.
From the mass spectrometric raw data, the ion currents for the double or triple charged monoisotopic signal was extracted for both, the compound and the internal standard.
Quantitation was performed by external matrix calibration with internal standard using the integrated analyte signals.
The result is stated as “% intact compound remaining after 4 h or 6 h” and means that from the amount of material at the start of the experiment the stated percentage is detected as unchanged material at the end of the experiment by LC-MS quantification. Since all compounds are more than 50% intact after at least 4 h they are considered as stable enough for diagnostic and therapeutic applications.

[4] = target: FAP-expressing human WI-38 fibroblasts (Homo sapiens (Human), UniProt Q12884); experiment: FACS binding assay (competitive, Cy5-labeled 3BP-2935); conditions: FAP-expressing WI-38 fibroblasts
Outline: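 Cells diluted to 100.000 cells per ml in FACS buffer, washed twice and analysed by flow cytometry. Median Cy5 fluorescence was plotted against test compound concentration, and pIC50 was derived by four-parameter logistic fit.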

HT-29 cells = experiment: Stability in the presence of tumor cells (HT-29), FAP IC50 of supernatants; type: in vitro ADME, human
Procedure: Cells were cultured in McCoys's 5A modified medium (Biochrom, #F1015) including 10% fetal bovine serum (FBS), 2 mM L-glutamine, 100 U/ml penicillin and 100 μg/mL streptomycin (growth medium). […] 1 mL of the cell suspension were seeded in 24-well plates and incubated overnight at 37° C. and 5% CO2. The next day, cells were washed twice and growth medium was exchanged against DMEM without phenol red (Biochrom, #F0475) including 2 mM L-glutamine. Test compound was diluted in DMEM without phenol red (Biochrom, #F0475) including 2 mM L-glutamine. 400 μL of a 10 μM solution of the test compound was incubated for 24 hours at 37° C. and 5% CO2 in the presence of cells as well as in control wells (without cells) of the same 24-well plate.
25 μL of a 30 μM substrate solution, diluted in assay buffer, was added. All solutions were equilibrated at 37° C. prior to use. […] RFU/sec was calculated by SoftMax Pro software and plotted against test compound concentration. Four parameter logistic (4PL) curve fitting and IC50/pIC50 calculations were performed using GraphPad Prism 9.1 software.
The stability of exemplary compounds was further assessed in the presence of a variety of human cell lines from different tissue origins. […] Compounds were diluted in DMEM without phenol red (Biochrom, #F0475) including 2 mM L-glutamine. 400 μL of a 10 μM solution of the test compound was incubated for 24 hours at 37° C. and 5% CO2 in the presence of cells as well as in control wells (without cells) of the same 24-well plate. IC50/pIC50 determination of the supernatants was performed as described above.

[5] = target: HEK-FAP cells (HEK293 cells engineered to express the human FAP) (Homo sapiens (Human), UniProt Q12884); experiment: LigandTracer assay with 111In-labeled compounds; type: binding; conditions: 111In-labeled compound
Procedure: HEK293 cells (human embryonic kidney cells) were engineered to express the human FAP. […] Cell concentrations were adjusted to 3×10^5 mL^−1, and 3.000 μL of the suspension was dispensed into a poly-lysine-coated, clear cell dish (10 cm). Approximately 24 hours after re-seeding, the medium was replaced by assay medium (Ham's medium with 20 mM HEPES) containing 1% FCS. The dish was placed in the LigandTracer® device and a baseline measurement was obtained using the LigandTracer® Control software (version 2.4). […] To determine the dissociation rate (kd) the cells were washed and subsequently incubated with fresh assay medium for several hours.

Recombinant mouse FAP = Recombinant mouse FAP (Mus musculus (Mouse), UniProt P97321); experiment: FAP protease activity assay (mouse), FRET-based; type: biochemical; conditions: recombinant mouse FAP, FRET protease activity
Procedure: as §2
Four parameter logistic (4PL) curve fitting and pIC50 calculations were performed using ActivityBase software.

recombinant human PREP, sequence (P48147 whole entry): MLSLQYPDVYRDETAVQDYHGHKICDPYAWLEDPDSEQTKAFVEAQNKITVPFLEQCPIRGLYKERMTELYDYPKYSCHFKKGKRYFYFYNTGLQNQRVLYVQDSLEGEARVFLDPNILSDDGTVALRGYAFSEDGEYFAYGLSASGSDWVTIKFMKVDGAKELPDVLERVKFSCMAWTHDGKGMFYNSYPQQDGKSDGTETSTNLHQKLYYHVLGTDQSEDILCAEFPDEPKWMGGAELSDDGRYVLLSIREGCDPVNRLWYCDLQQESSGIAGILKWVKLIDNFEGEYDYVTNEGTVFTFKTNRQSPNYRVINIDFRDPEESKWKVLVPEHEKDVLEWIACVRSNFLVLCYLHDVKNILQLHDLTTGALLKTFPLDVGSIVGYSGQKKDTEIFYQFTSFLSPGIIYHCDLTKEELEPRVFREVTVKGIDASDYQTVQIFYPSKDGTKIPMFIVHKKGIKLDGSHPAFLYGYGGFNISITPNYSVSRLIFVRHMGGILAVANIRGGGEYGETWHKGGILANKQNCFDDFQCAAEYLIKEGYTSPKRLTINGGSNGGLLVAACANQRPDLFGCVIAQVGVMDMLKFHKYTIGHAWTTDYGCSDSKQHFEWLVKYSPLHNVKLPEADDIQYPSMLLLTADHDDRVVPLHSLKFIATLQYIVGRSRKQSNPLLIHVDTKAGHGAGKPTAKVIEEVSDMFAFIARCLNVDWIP
FAP-expressing human WI-38 fibroblasts, sequence (Q12884 whole entry): as the sequence (Q12884 whole entry) above
Recombinant human DPP4, sequence (P27487 whole entry): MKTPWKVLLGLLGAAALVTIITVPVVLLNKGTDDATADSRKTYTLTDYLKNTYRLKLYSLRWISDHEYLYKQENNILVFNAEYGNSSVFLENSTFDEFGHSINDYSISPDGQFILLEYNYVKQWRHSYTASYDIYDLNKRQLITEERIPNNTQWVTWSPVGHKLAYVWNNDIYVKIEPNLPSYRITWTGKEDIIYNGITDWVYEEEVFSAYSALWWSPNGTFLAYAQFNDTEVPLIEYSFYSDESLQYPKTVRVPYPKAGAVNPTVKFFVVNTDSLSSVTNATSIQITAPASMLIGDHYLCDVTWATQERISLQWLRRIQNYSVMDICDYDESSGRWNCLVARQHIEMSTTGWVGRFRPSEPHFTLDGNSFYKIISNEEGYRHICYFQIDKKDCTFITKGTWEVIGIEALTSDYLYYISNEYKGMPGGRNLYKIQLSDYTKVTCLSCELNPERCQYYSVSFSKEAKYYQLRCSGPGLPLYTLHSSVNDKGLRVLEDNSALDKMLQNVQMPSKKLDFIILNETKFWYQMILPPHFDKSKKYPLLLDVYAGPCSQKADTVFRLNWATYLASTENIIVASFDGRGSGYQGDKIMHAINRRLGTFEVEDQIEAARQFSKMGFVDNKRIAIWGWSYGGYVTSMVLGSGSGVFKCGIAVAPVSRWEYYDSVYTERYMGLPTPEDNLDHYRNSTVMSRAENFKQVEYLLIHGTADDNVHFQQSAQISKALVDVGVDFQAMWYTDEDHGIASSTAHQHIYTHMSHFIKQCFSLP
Recombinant mouse FAP, sequence (P97321 whole entry): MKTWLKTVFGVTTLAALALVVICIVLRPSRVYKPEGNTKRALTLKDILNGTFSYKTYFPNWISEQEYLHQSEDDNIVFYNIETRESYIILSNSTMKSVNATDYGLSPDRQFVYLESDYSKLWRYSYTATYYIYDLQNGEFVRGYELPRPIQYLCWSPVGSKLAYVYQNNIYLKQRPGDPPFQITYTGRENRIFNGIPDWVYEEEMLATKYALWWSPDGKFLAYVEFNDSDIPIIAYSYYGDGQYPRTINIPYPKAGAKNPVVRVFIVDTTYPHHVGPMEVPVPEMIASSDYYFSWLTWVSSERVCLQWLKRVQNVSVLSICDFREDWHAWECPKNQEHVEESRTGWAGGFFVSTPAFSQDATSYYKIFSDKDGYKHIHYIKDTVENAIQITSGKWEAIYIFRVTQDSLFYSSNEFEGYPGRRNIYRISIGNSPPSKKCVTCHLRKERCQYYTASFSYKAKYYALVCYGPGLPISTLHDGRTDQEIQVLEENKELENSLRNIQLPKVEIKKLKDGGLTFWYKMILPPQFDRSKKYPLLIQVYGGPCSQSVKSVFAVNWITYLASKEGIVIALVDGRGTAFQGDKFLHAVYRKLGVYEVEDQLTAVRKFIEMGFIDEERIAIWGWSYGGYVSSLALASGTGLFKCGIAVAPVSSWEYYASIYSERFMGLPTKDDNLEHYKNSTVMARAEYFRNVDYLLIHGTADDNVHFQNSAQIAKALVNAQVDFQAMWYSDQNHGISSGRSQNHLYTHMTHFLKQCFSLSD

Structure (SMILES): O=C(NCC(=O)N1CCC[C@H]1C(=O)c1ncco1)c1ccnc2ccccc12 [Compound 3BP-3208]
- pKD (Biacore) (Human recombinant FAP [1]; SPR): 8.6
- HL [min] (Biacore) (Human recombinant FAP [1]): 0.6 min
- pIC50 (DPP4) (Recombinant human DPP4): <6
- pIC50 (PREP) (recombinant human PREP): 9.2
- pIC50 (Activity) (Human recombinant FAP [2]): 8.2
- % intact compound remaining after incubation, Mouse plasma [3]: 92%
- pIC50 (FACS) [4]: 7.9

Structure (SMILES): O=C(O)CN1CCN(CC(=O)O)CCN(CC(=O)NCCCS(=O)(=O)c2ccc(-c3ccc4nccc(C(=O)NCC(=O)N5CCC[C@H]5C(=O)c5nc6ccccc6o5)c4c3)cc2)CCN(CC(=O)O)CC1 [Compound 3BP-3581, (S)-2,2′,2″-(10-(2-(3-(4-(4-(2-(2-(benzo[d]oxazole-2-carbonyl)pyrrolidin-1-yl)-2-oxoethylcarbamoyl)quinolin-6-yl)phenylsulfonyl)propylamino)-2-oxoethyl)-1,4,7,10-tetraazacyclododecane-1,4,7-triyl)triacetic Acid]
- HL [min] (Biacore) (Human recombinant FAP [1]): 120 min
- Kd (Human recombinant FAP [1]; SPR, read-out: pKD (Biacore) (converted)): < 0.0316 nM
- IC50 (HT-29 cells; 10 μM compound, 24 hours at 37° C. with HT-29 cells, supernatant tested on recombinant human FAP, read-out: pIC50 (incubation in the presence of HT-29 cells) (converted)): 2 nM
- IC50 (HT-29 cells; HT-29, 10 μM compound, 24 hours at 37° C. in control wells without cells, supernatant tested on recombinant human FAP, read-out: pIC50 (incubation in cell medium w/o HT-29) (converted)): 2 nM
- Residual activity after incubation with HT-29 cells for 24 hours (%) (HT-29 cells): >95%
- IC50 (Human recombinant FAP [2]; read-out: pIC50 (Activity) (converted)): 1.26 nM
- HL (half-life) [5]: 5.75 ± 3.63 h
- Kd [5]: 0.0794 nM
- IC50 [4]: 1.58 nM

Structure (SMILES): O=C(O)CN1CCN(CC(=O)O)CCN(CC(=O)N2CCN(CCCOc3ccc4nccc(C(=O)NCC(=O)N5CCC[C@H]5C(=O)c5nc6ccccc6o5)c4c3)CC2)CCN(CC(=O)O)CC1 [Compound 3BP-4808]
- pKD (Biacore) (Human recombinant FAP [1]; SPR): >10.5
- HL [min] (Biacore) (Human recombinant FAP [1]): >150 min
- pIC50 (incubation in cell medium w/o HT-29) (HT-29 cells; 10 μM compound, 24 hours at 37° C. in control wells without cells, supernatant tested on recombinant human FAP): 8.6
- pIC50 (incubation in the presence of HT-29 cells) (HT-29 cells; 10 μM compound, 24 hours at 37° C. with HT-29 cells, supernatant tested on recombinant human FAP): 8.6
- Residual activity after incubation with HT-29 cells for 24 hours (%) (HT-29 cells): >95%
- HL (half-life) [5]: 0.333 ± 0.083 h

Structure (SMILES): CS(=O)(=O)c1cccc(-c2ccc3nccc(C(=O)NCC(=O)N4CC(F)(F)C[C@H]4C#N)c3c2)c1 [Compound 3BP-3126]
- pKD (Biacore) (Human recombinant FAP [1]; SPR): 10.1
- HL [min] (Biacore) (Human recombinant FAP [1]): 29 min
- pIC50 (DPP4) (Recombinant human DPP4): 6.1
- pIC50 (PREP) (recombinant human PREP): <6
- pIC50 (Activity) (Human recombinant FAP [2]): 9.2
- pIC50 (mouseFAP) (Recombinant mouse FAP): 9
- % intact compound remaining after incubation, Mouse plasma [3]: 78%
- pIC50 (FACS) [4]: 8.8

Structure (SMILES): CS(=O)(=O)c1ccc(-c2ccc3c(C(=O)NCC(=O)N4CCC[C@H]4C#N)ccnc3c2)cc1 [Compound 3BP-3128]
- pKD (Biacore) (Human recombinant FAP [1]; SPR): 9.2
- HL [min] (Biacore) (Human recombinant FAP [1]): 4 min
- pIC50 (DPP4) (Recombinant human DPP4): <6
- pIC50 (PREP) (recombinant human PREP): 6.1
- pIC50 (Activity) (Human recombinant FAP [2]): 8.8
- % intact compound remaining after incubation, Mouse plasma [3]: >95%
- pIC50 (FACS) [4]: 8.2

Structure (SMILES): CS(=O)(=O)c1cccc(-c2ccc3c(C(=O)NCC(=O)N4CC(F)(F)C[C@H]4C#N)ccnc3c2)c1 [Compound 3BP-3127]
- pKD (Biacore) (Human recombinant FAP [1]; SPR): 10.1
- pIC50 (DPP4) (Recombinant human DPP4): <6
- pIC50 (PREP) (recombinant human PREP): <6
- pIC50 (Activity) (Human recombinant FAP [2]): 9.1
- pIC50 (mouseFAP) (Recombinant mouse FAP): 8.9
- % intact compound remaining after incubation, Mouse plasma [3]: >95%
- pIC50 (FACS) [4]: 8.7
